From ChEMBL document CHEMBL5465560, “Selectivity Literature for EUbOPEN Chemogenomic Library” (2024)

Assays:
[1] = biological target: T1, Serine/threonine-protein kinase 3 (Homo sapiens) (UniProt Q13188); assay: Selectivity interaction (Kinase panel (literature)) EUB0001199aCl STK3; conditions: at 1 µM
T1 sequence (whole entry): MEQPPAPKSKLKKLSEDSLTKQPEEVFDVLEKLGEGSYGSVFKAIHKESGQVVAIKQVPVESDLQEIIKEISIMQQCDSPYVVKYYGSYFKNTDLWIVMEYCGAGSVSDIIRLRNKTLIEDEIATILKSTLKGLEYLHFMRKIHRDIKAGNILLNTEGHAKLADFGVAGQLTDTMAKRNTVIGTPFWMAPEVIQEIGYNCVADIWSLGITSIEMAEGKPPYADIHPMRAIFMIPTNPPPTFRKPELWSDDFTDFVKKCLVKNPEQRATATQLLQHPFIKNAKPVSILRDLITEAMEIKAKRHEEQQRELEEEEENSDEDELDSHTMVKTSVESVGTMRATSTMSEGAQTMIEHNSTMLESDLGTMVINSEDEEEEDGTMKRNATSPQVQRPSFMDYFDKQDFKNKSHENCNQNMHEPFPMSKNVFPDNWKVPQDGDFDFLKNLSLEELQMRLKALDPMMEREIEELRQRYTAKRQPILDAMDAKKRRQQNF

[2] = biological target: T2, Tyrosine-protein kinase ZAP-70 (Homo sapiens, UniProt P43403); assay: Selectivity interaction (Kinase panel (33PanQinase(R) Activity Assay)) EUB0000877a ZAP70
T2 sequence (P43403 whole entry): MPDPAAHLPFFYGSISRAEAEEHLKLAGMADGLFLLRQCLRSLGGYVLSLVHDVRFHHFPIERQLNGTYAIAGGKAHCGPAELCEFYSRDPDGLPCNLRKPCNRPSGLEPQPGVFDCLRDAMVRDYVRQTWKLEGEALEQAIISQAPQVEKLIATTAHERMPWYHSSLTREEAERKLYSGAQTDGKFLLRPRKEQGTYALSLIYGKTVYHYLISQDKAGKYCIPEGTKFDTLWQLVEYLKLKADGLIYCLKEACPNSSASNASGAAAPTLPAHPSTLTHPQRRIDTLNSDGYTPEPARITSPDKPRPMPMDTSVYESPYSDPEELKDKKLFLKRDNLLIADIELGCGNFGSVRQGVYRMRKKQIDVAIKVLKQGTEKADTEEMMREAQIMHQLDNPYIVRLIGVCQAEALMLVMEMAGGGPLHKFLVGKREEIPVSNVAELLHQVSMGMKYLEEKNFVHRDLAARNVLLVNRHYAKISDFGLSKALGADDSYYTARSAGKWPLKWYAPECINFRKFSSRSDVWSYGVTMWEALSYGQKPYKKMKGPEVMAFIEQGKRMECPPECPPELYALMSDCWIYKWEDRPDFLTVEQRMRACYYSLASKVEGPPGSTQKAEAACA

[3] = biological target: Serine/threonine-protein kinase 26 (Homo sapiens, UniProt Q9P289)
[4] = biological target: T3, Dual specificity tyrosine-phosphorylation-regulated kinase 2 (Homo sapiens) (UniProt Q92630); assay: Selectivity interaction (KinomeScan (DiscoverX)) EUB0000607a DYRK2; conditions: at 10 µM
T3 sequence (whole entry): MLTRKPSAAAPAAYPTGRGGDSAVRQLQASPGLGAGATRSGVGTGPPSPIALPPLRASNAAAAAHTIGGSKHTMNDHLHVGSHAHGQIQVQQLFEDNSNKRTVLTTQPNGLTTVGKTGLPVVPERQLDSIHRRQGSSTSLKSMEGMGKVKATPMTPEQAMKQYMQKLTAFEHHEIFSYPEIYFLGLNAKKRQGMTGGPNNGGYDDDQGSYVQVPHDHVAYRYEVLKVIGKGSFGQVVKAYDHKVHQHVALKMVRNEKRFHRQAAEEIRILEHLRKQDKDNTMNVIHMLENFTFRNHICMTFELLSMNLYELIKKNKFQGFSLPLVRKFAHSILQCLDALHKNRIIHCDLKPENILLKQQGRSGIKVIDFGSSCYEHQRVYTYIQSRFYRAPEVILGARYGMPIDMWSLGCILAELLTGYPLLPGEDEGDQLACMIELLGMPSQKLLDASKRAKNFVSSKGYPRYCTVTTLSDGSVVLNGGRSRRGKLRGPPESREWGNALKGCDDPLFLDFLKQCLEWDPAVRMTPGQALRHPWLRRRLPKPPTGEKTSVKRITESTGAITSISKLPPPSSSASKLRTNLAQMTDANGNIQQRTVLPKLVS

Serine/threonine-protein kinase 26, sequence (Q9P289 whole entry): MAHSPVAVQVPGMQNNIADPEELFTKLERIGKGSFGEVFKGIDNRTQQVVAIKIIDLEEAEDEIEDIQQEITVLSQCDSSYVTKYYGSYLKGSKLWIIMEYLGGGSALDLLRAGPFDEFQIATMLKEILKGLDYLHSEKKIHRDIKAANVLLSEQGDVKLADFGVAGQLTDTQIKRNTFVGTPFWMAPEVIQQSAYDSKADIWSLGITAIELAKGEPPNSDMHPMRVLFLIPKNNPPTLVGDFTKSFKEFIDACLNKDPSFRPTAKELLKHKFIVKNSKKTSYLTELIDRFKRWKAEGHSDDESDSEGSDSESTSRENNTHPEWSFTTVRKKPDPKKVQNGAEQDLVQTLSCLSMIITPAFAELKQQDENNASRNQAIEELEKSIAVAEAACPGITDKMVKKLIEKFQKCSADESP

SMILES: CN1Cc2nccc(-c3cn(C)nc3-c3ccc(F)cc3)c2C1=O
- % of inhibition [1]: -2%

SMILES: CCC(=O)N1CC[C@H](Nc2ncnc3c2CN(c2cnc(OC)c(C(F)(F)F)c2)CC3)C1 [LENIOLISIB]
- IC50 [2]: > 10 µM

SMILES: CCc1cccc(CC)c1NC(=O)c1nn(C)c2c1CCc1cnc(Nc3ccc(C(=O)NC4CCN(C)CC4)cc3OC(F)(F)F)nc1-2
- IC50 [3]: > 10 µM

SMILES: CNC(=O)Nc1ccc(-c2nc(N3CC4CCC(C3)O4)c3cnn(C4CCC5(CC4)OCCO5)c3n2)cc1
- % of control [4]: 90%
